Results published in US8586538B2, “Method of treating a patient suffering from a bleeding disorder comprising administering an antibody against the A3-C1 of FVIII” (Stichting Sanquin Bloedvoorziening, priority 2002, dated 2013).
Values joined by “and” are separate entries in the source; they are usually repeats but may differ in a detail not shown here. Identical values can stand only once. No end group written: not given here.

Legend:
[1] = biological target: T1, interaction between FVIII light chain and LRP cluster II (Homo sapiens, UniProt Q07954); assay: Solid-phase competition: FVIII light chain binding to immobilized LRP cluster II; settings: FVIII light chain 25 nM; peptide 0-1 mM; 2 h at 37° C
T1 construct: Recombinant LRP clusters II or IV (1 pmol/well) were adsorbed onto microtiter wells; made in house; host or cells: LRP cluster II: BHK cells; FVIII light chain: plasma-derived
T1 sequence (Q07954 803-1182): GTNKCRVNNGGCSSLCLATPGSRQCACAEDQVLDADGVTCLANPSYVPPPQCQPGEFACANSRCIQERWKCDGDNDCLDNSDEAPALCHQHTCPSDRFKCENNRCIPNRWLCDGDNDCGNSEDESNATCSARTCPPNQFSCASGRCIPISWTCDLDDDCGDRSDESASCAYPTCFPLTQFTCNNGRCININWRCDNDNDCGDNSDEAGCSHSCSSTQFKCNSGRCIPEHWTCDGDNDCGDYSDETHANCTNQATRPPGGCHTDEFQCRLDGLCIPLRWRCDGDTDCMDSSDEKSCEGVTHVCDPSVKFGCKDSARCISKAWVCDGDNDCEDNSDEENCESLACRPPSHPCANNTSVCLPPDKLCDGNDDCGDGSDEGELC
Description: FIG. 4. Effect of scFv antibody fragments on the interaction between FVIII light chain and LRP. A, FVIII light chain (LCh) (25 nM) was incubated with immobilized LRP cluster II (1 pmol/well) in a volume of 50 μl in 150 mM NaCl, 5 mM CaCl2, 1% (w/v) HSA, 0.1% Tween® 20, and 50 mM Tris (pH 7.4) in the presence of various concentrations (0-100 nM) of scFv KM41 (closed circles) or scFv KM36 (open circles) for 2 h at 37° C. After washing with the same buffer, bound FVIII light chain was quantified by incubation with peroxidase-conjugated anti-FVIII antibody CLB-CAg 12 for 15 min at 37° C. Residual binding is expressed as the percentage of binding in the absence of competitor and is corrected for nonspecific binding (less than 5% relative to binding to LRP cluster II-immobilized wells). Data represent the mean±S.D. of three experiments. B, FVIII light chain (50 nM) was incubated with immobilized LRP (16 fmol/mm^2) as described in the legend of FIG. 1. Binding was assessed in the absence (curve 1) or in the presence of increasing concentrations of scFv KM41 (20, 60, 300, 500 nM, curves 2-5, respectively). Complexes were allowed to form for 30 min before SPR analysis.
FIG. 5. Effect of scFv KM33 on the interaction between FVIII light chain and LRP. FVIII light chain (LCh) (25 nM) was incubated with immobilized LRP cluster II (1 pmol/well) in a volume of 50 μl in 150 mM NaCl, 5 mM CaCl2, 1% (w/v) HSA, 0.1% Tween® 20, and 50 mM Tris (pH 7.4) in the presence of various concentrations (0-30 nM) of scFv KM36 (open circles) or scFv KM33 (closed circles) for 2 h at 37° C. After washing with the same buffer, bound FVIII Light chain was quantified by incubation with peroxidase-conjugated anti-FVIII antibody CLB-CAg 12 for 15 min at 37° C. Residual binding is expressed as the percentage of binding in the absence of competitor and is corrected for nonspecific binding (less than 5% relative to binding to cluster-coated wells). Data represent the mean±S.D. of three experiments.
Recombinant LRP clusters II or IV (1 pmol/well) were adsorbed onto microtiter wells in 50 mM NaHCO3 (pH 9.8) in a volume of 50 μl for 16 h at 4° C. Wells were blocked with 2% (w/v) HSA, 150 mM NaCl, 5 mM CaCl2, and 50 mM Tris (pH 7.4) in a volume of 200 μl for 1 h at 37° C. After three rapid washes (less than 5 seconds each) with 150 mM NaCl, 5 mM CaCl2, 0.1% (v/v) Tween® 20, and 50 mM Tris (pH 7.4), FVIII light chain or its derivatives were incubated at various concentrations in a volume of 50 μl in a buffer containing 150 mM NaCl, 5 mM CaCl2, 1% (w/v) HSA, 0.1% (v/v) Tween® 20, and 50 mM Tris (pH 7.4) for 2 h. at 37° C. Bound ligand was detected by incubating with peroxidase-conjugated monoclonal antibody CLB-CAg 12 in the same buffer for 15 min at 37° C. […] In competition experiments, FVIII light chain (25 nM) was incubated with wells containing immobilized LRP clusters, either in the presence or absence of serial dilutions of competitor in a volume of 50 μl for 2 h at 37° C. Residual FVIII binding was detected as described above. Data were corrected for binding to empty microtiter wells, which was less than 5% relative to binding to wells containing immobilized LRP clusters.
(Note to Table II: Effect of FVIII a3-A3-C1 fragment derived synthetic peptides on the interaction between FVIII light chain and LRP cluster II. FVIII light chain (25 nM) was incubated with immobilized LRP cluster II (1 pmol/well) in a volume of 50 μl in 150 mM NaCl, 5 mM CaCl2, 1% (w/v) HSA, 0.1% Tween® 20, and 50 mM Tris (pH 7.4) in the presence or absence of various concentrations of synthetic peptide (0-1 mM) for 2 h at 37° C. After washing with the same buffer, bound FVIII light chain was quantified by incubation with peroxidase-conjugated anti-FVIII antibody CLB-CAg 12 for 15 min at 37° C. Half-maximum inhibition constants (IC50) represent the mean values±S.D. of three experiments.)

FVIIIa-FIXa complex = FVIIIa-FIXa complex (Homo sapiens, UniProt P00451+P00740); settings: by interfering with the assembly of the FVIIIa-FIXa complex; cited from earlier work
FVIIIa-FIXa complex, sequence (P00451 1709-2351 limits assumed): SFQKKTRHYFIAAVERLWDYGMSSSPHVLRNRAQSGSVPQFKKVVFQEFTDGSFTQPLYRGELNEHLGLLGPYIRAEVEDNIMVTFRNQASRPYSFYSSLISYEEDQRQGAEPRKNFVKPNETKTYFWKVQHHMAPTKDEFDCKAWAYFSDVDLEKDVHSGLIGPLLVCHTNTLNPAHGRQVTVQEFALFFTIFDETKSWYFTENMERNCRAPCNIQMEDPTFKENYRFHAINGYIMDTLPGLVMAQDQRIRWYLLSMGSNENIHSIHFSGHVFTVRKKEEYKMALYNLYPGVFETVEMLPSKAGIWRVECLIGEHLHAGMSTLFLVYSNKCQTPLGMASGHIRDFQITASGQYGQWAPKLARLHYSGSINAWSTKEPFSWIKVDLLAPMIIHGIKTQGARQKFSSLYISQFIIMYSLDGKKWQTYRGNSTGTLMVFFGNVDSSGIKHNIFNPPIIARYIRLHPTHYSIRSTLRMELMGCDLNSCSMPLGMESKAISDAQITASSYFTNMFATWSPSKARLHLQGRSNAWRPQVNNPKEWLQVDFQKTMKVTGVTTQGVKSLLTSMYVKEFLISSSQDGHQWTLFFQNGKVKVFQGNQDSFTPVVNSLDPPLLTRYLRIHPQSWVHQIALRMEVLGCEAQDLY
FVIIIa-FIXa complex, sequence (P00740 47-191 limits assumed): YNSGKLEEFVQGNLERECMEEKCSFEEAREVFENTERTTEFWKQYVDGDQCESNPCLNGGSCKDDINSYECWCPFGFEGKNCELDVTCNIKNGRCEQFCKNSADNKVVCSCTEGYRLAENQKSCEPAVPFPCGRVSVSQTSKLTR

Row | Sequence | IC50 [1] | Inhibition of FVIII procoagulant activity (FVIIIa-FIXa complex)
1 | KNFVKPNETKTYFWK [Residues 1804-1818] | ~1.9 µM and 1.9 µM | effective inhibitors
2 | TENMERNCRA [Residues 1892-1901] | > 1000 µM | –

The next lines start with results.

Row | IC50 [1] | Sequence | Inhibition of FVIII procoagulant activity (FVIIIa-FIXa complex)
3 | > 1000 µM | EDPTFKENYRFH [Residues 1908-1919] | –
4 | > 1000 µM | WDYGMSSSPHVLRNR [Residues 1707-1721] | –
5 | > 1000 µM | TVRKKEEYK [Residues 1964-1972] | –
